Experimental data from patent US6727264B1 (Synaptic Pharmaceutical Corporation, priority 2001, dated 2004).

These compounds were tested against rat MCH-1 (Rattus norvegicus, UniProt P97639) (assay: Radioligand binding assay at cloned rat MCH1 receptor ([3H] Compound A)). Details: cloned rat MCH1 receptor; 0.08 nM [3H] Compound A; Peakr293 cell membranes; read-out: Ki (nM) rMCH1.
Set-up: host or cells: Peak rapid 293 (Peakr293) cells, transient calcium phosphate transfection, membranes

Chain of rat MCH-1 (P97639 whole entry): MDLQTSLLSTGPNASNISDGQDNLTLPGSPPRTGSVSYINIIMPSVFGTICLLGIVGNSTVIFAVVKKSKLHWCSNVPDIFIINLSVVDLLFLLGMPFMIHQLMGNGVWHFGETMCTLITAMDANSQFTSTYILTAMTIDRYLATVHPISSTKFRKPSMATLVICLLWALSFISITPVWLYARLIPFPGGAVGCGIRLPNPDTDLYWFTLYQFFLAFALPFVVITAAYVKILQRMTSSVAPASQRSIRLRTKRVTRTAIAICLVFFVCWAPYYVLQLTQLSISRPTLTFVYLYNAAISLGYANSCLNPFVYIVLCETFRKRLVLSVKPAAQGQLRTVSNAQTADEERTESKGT

Ki [nM] | SMILES
3.4 | Cc1ccc2[nH]c(-c3ccc(F)cc3)c(CCCN3CCC(c4cccc(NC(=O)C(C)C)c4)CC3)c2c1 [Example 718]
14.9 | Cc1cccc2c(CCCN3CCC(c4cccc(NC(=O)C(C)C)c4)CC3)c(-c3ccc(Cl)cc3)[nH]c12 [Example 719]
12.5 | Cc1ccc2[nH]c(-c3ccc(Cl)cc3)c(CCCN3CCC(c4cccc(NC(=O)C(C)C)c4)CC3)c2c1 [Example 720]
75.3 | CC(C)C(=O)Nc1cccc(C2CCN(CCCc3c(-c4ccc(Cl)cc4)n(-c4ccccc4)c4ccccc34)CC2)c1 [Example 721]
6.4 | Cc1cccc2c(CCCN3CCC(c4cccc(NC(=O)C(C)C)c4)CC3)c(-c3cccc(Cl)c3)[nH]c12 [Example 722]
9.2 | CC(C)C(=O)Nc1cccc(C2CCN(CCCc3c(-c4cccc(Cl)c4)[nH]c4ccc(OC(F)(F)F)cc34)CC2)c1 [Example 723]
5 | CC(C)C(=O)Nc1cccc(C2CCN(CCCc3c(-c4cccc(Cl)c4)n(C)c4ccccc34)CC2)c1 [Example 724]
152 | CC(C)C(=O)Nc1cccc(C2CCN(CCCc3c(-c4cccc(Cl)c4)n(-c4ccccc4)c4ccccc34)CC2)c1 [Example 725]
5 | COc1ccc2[nH]c(-c3cccc(Cl)c3)c(CCCN3CCC(c4cccc(NC(=O)C(C)C)c4)CC3)c2c1 [Example 726]
3.4 | Cc1ccc2[nH]c(-c3cccc(Cl)c3)c(CCCN3CCC(c4cccc(NC(=O)C(C)C)c4)CC3)c2c1 [Example 727]
16.3 | CC(C)C(=O)Nc1cccc(C2CCN(CCCc3c(-c4cccc(Cl)c4)[nH]c4c3ccc3ccccc34)CC2)c1 [Example 728]
1.7 | CC(C)C(=O)Nc1cccc(C2CCN(CCCc3c(-c4cccc(Cl)c4)[nH]c4ccccc34)CC2)c1 [Example 729]
0.9 | CC(C)C(=O)Nc1cccc(C2CCN(CCCc3c(-c4ccccc4Cl)[nH]c4ccccc34)CC2)c1 [Example 730]
9.9 | CC(C)C(=O)Nc1cccc(C2CCN(CCCc3c(-c4ccccc4Cl)[nH]c4ccc(OC(F)(F)F)cc34)CC2)c1 [Example 731]
5.8 | CC(C)C(=O)Nc1cccc(C2CCN(CCCc3c(-c4ccccc4Cl)[nH]c4c3ccc3ccccc34)CC2)c1 [Example 732]
10 | Cc1cccc2c(CCCN3CCC(c4cccc(NC(=O)C(C)C)c4)CC3)c(-c3ccccc3Cl)[nH]c12 [Example 733]
28.6 | CC(C)C(=O)Nc1cccc(C2CCN(CCCc3c(-c4ccccc4Cl)n(-c4ccccc4)c4ccccc34)CC2)c1 [Example 734]
1.1 | CC(C)C(=O)Nc1cccc(C2CCN(CCCc3c(-c4ccccc4Cl)n(C)c4ccccc34)CC2)c1 [Example 735]
5.7 | Cc1ccc2[nH]c(-c3ccccc3Cl)c(CCCN3CCC(c4cccc(NC(=O)C(C)C)c4)CC3)c2c1 [Example 736]
1 | CC(C)C(=O)Nc1cccc(C2CCN(CCCc3c(-c4cccc(I)c4)[nH]c4ccccc34)CC2)c1 [Example 737]
10.2 | CC(C)C(=O)Nc1cccc(C2CCN(CCCc3c(-c4cccc(I)c4)n(C)c4ccccc34)CC2)c1 [Example 738]
214 | CC(C)C(=O)Nc1cccc(C2CCN(CCCc3c(-c4cccc(I)c4)n(-c4ccccc4)c4ccccc34)CC2)c1 [Example 739]
12.2 | CC(C)C(=O)Nc1cccc(C2CCN(CCCc3c(-c4cccc(I)c4)[nH]c4c3ccc3ccccc34)CC2)c1 [Example 740]
2.8 | CC(C)C(=O)Nc1cccc(C2CCN(CCCc3c(-c4cccc(I)c4)[nH]c4ccc(OC(F)(F)F)cc34)CC2)c1 [Example 741]

Ki [nM] | SMILES
1.4 | Cc1ccc2[nH]c(-c3cccc(I)c3)c(CCCN3CCC(c4cccc(NC(=O)C(C)C)c4)CC3)c2c1 [Example 742]
4.1 | Cc1cccc2c(CCCN3CCC(c4cccc(NC(=O)C(C)C)c4)CC3)c(-c3cccc(I)c3)[nH]c12 [Example 743]
47.1 | CC(C)C(=O)Nc1cccc(C2CCN(CCCc3c(-c4ccc(I)cc4)[nH]c4ccc(OC(F)(F)F)cc34)CC2)c1 [Example 744]
15.8 | Cc1ccc2[nH]c(-c3ccc(I)cc3)c(CCCN3CCC(c4cccc(NC(=O)C(C)C)c4)CC3)c2c1 [Example 745]
8 | Cc1cccc2c(CCCN3CCC(c4cccc(NC(=O)C(C)C)c4)CC3)c(-c3ccc(I)cc3)[nH]c12 [Example 746]
161 | CC(C)C(=O)Nc1cccc(C2CCN(CCCc3c(-c4ccc(I)cc4)n(-c4ccccc4)c4ccccc34)CC2)c1 [Example 747]
3.1 | CC(C)C(=O)Nc1cccc(C2CCN(CCCc3c(-c4ccc(I)cc4)n(C)c4ccccc34)CC2)c1 [Example 748]
23.2 | CC(C)C(=O)Nc1cccc(C2CCN(CCCc3c(-c4ccc(I)cc4)[nH]c4c3ccc3ccccc34)CC2)c1 [Example 749]
2.6 | CC(C)C(=O)Nc1cccc(C2CCN(CCCc3c(-c4ccc(I)cc4)[nH]c4ccccc34)CC2)c1 [Example 750]
12.4 | CC(C)C(=O)Nc1cccc(C2CCN(CCCc3c(-c4cccc(Br)c4)[nH]c4ccc(OC(F)(F)F)cc34)CC2)c1 [Example 751]
21.7 | CC(C)C(=O)Nc1cccc(C2CCN(CCCc3c(-c4ccc(Br)cc4)[nH]c4c3ccc3ccccc34)CC2)c1 [Example 752]
16.6 | Cc1cccc2c(CCCN3CCC(c4cccc(NC(=O)C(C)C)c4)CC3)c(-c3ccc(Br)cc3)[nH]c12 [Example 753]
49.2 | CC(C)C(=O)Nc1cccc(C2CCN(CCCc3c(-c4ccc(Br)cc4)[nH]c4ccc(OC(F)(F)F)cc34)CC2)c1 [Example 754]
23.8 | CC(C)C(=O)Nc1cccc(C2CCN(CCCc3c(-c4cccc(Br)c4)[nH]c4c3ccc3ccccc34)CC2)c1 [Example 755]
4.2 | CC(C)C(=O)Nc1cccc(C2CCN(CCCc3c(-c4ccc(Br)cc4)[nH]c4ccccc34)CC2)c1 [Example 756]
6.9 | CC(C)C(=O)Nc1cccc(C2CCN(CCCc3c(-c4cccc(Br)c4)n(-c4ccccc4)c4ccccc34)CC2)c1 [Example 757]
110 | CC(C)C(=O)Nc1cccc(C2CCN(CCCc3c(-c4cccc(Br)c4)n(C)c4ccccc34)CC2)c1 [Example 758]
92.3 | CC(C)C(=O)Nc1cccc(C2CCN(CCCc3c(-c4ccc(Br)cc4)n(-c4ccccc4)c4ccccc34)CC2)c1 [Example 760]
15.9 | COc1ccc2[nH]c(-c3ccc(Br)cc3)c(CCCN3CCC(c4cccc(NC(=O)C(C)C)c4)CC3)c2c1 [Example 761]
6.3 | Cc1cccc2c(CCCN3CCC(c4cccc(NC(=O)C(C)C)c4)CC3)c(-c3cccc(Br)c3)[nH]c12 [Example 762]
1.9 | Cc1ccc2[nH]c(-c3cccc(Br)c3)c(CCCN3CCC(c4cccc(NC(=O)C(C)C)c4)CC3)c2c1 [Example 763]
14.6 | Cc1ccc2[nH]c(-c3ccc(Br)cc3)c(CCCN3CCC(c4cccc(NC(=O)C(C)C)c4)CC3)c2c1 [Example 764]
6.5 | COc1ccc2[nH]c(-c3cccc(Br)c3)c(CCCN3CCC(c4cccc(NC(=O)C(C)C)c4)CC3)c2c1 [Example 765]
7.6 | CC(C)C(=O)Nc1cccc(C2CCN(CCCc3c(-c4cccc([N+](=O)[O-])c4)[nH]c4ccccc34)CC2)c1 [Example 766]

SMILES | Ki [nM]
CC(C)C(=O)Nc1cccc(C2CCN(CCCc3c(-c4ccc(Br)cc4)n(C)c4ccccc34)CC2)c1 [Example 759] | 9.3
